Test results: patent publication US20090202645A1, “INTRASYNOVIAL FORMULATIONS OF STANOZOLOL” (ACME DRUGS S.R.L., priority 2008, published 2009)

Legend:
[1] = persistence in synovial fluid of the typical intrasynovial preparation; type: in vivo; details: micronised stanozolol 5 mg, water for injectables to 1 ml, horses and humans
Experimental: An example of the formulation of a typical preparation containing stanozolol administrable by the intrasynovial route to horses and humans, which remains in the synovial fluid for 5-7 days, is set out below:
Active ingredient: micronised stanozolol (having a prevalent population of particles with a diameter of less than 20 μm) 5 mg;
Water for injectables q.s. to 1 ml.

[2] = test system: synovial fibroblasts from rheumatoid synovial tissue; details: cited from earlier work
[3] = test system: cartilage tissue; test: effect on tissue, especially cartilage tissue; details: unlike the majority of NSAIDs and anti-inflammatory corticosteroids
[4] = persistence in the joint after a single intrasynovial injection; type: in vivo
Description: A single intrasynovial injection of said formulations allows the stanozolol to be brought up to and maintained at pharmacologically active concentrations in the joint for 6-7 days, a period which is long enough to produce evident clinical benefits and fully compatible with long-term treatments.

[5] = solubility in water; type: physicochemical; details: crystalline substance
Description: The formulations according to the invention of stanozolol in an aqueous carrier are therefore aqueous suspensions, and it is necessary to prevent the suspended crystals of the drug from causing mechanical lesions such as abrasions and erosions despite the pressures and friction generated by the movement of the joint on the surfaces of the cartilage and synovial membrane.

[6] = test system: healthy skin fibroblast; details: cited from earlier work

**Q.** For C[C@]12Cc3c[nH]nc3C[C@@H]1CC[C@@H]1[C@@H]2CC[C@@]2(C)[C@H]1CC[C@]2(C)O [stanozolol], which “time remaining in the synovial fluid” value [1] is on record?
**A.** 5 to 7 days

**Q.** What about the “effect on synovial fibroblasts” value [2] of the same molecule?
**A.** no effect

**Q.** What about the “degeneration of tissue, especially cartilage tissue” value [3] of the same molecule?
**A.** does not cause the degeneration of tissue, especially cartilage tissue, but regenerates it

**Q.** And the “time stanozolol is maintained at pharmacologically active concentrations in the joint” value [4]?
**A.** 6-7 days

**Q.** And the solubility in water [5]?
**A.** insoluble in water

**Q.** And the “production of PGE2” value [6]?
**A.** induces the production

**Q.** What about the production of collagenase [6] of the same molecule?
**A.** induces the production
